{"source": "the OPERA property sets (Mansouri et al. 2018)", "data": [{"values": [{"smiles": "CC(=O)c1cccc(N)c1", "logP": 0.83}, {"smiles": "Fc1ccc(Cl)cc1", "logP": 2.78}, {"smiles": "Fc1ccc(F)cc1", "logP": 2.13}, {"smiles": "CC(=O)c1cccc(C)c1", "logP": 2.15}, {"smiles": "Cc1cccc(F)c1", "logP": 2.75}, {"smiles": "Cc1ccc(Br)cc1", "logP": 3.42}, {"smiles": "COc1ccc(OC)cc1", "logP": 2.04}, {"smiles": "Fc1cccc(Br)c1", "logP": 2.92}, {"smiles": "Clc1ccc(Br)cc1", "logP": 3.54}, {"smiles": "Fc1ccc(Br)cc1", "logP": 3.08}, {"smiles": "Cc1cccc(Br)c1", "logP": 3.41}, {"smiles": "CC(=O)c1cccc(Br)c1", "logP": 2.47}, {"smiles": "Cc1ccc(F)cc1", "logP": 2.58}, {"smiles": "Clc1cccc(Br)c1", "logP": 3.7}, {"smiles": "COc1cccc(Br)c1", "logP": 3.03}, {"smiles": "COc1ccc(Br)cc1", "logP": 3.05}, {"smiles": "COc1cccc(F)c1", "logP": 2.36}, {"smiles": "Fc1cccc(F)c1", "logP": 2.21}, {"smiles": "COc1ccc(F)cc1", "logP": 2.26}]}]}
